Data on 2 compounds can be found in US10969387B2, “Compounds, complexes, and methods useful for detecting and/or treating bacterial pathogens” (REGENTS OF THE UNIVERSITY OF MINNESOTA, priority 2015, dated 2021).

The test system of assay [1] is E. coli. As to conditions: Thulasiraman et al., J Bacteriol. 1998; cited from earlier work.
A further assay addresses FepA (Escherichia coli, UniProt P05825). As to conditions: Thulasiraman et al., J Bacteriol. 1998; cited from earlier work.
Assay [2] has as its system E. coli. In words: Bacteria detection by fluorescence in T media (probe uptake), E. coli. It counts as cell-based. As to conditions: dye not conjugated to an enterobactin analogue; control experiment (FIG. 28). The method, then: Sample Processing for Bacteria Detection by Fluorescence in T Media Experiments with Bacteria Genus
• 1. Bacteria is prepared • a. Sub bacteria onto blood agar and incubate overnight • b. Select several colonies and grow overnight in LB media at 37° C. in room air on orbital shaker • c. 100 μl of overnight culture is placed into 100 ml T media, incubated for 5 hours (E. coli, Salmonella, A. baumannii, Klebsiella pneumoniae) or 10 hours (B. subtillus, S. aureus) • d. Quantitate using 1:10 dilution and plating 100 μl of dilutions onto blood agar • 2. Prepare the samples in 1.5 microcentrifuge tubes, vortex, in triplicate • a. For each bacteria • i. 1 ml bacteria+25 μl Tris • ii. 1 ml bacteria+25 μl Probe • b. For each run include controls • i. 1 ml T media+25 μl Tris • ii. […] 24+ hours count colonies on quantitative cultures
The effect of probe chemical structure on response can be seen in FIG. 28 in an increase in fluorescence intensity after incubation of E. coli with Ga-TREN-CAM-C2-OG (example 1), Ga-TREN-GlyCAM-GluCAM-OG (example 2), Ga-3,3-LiCAM-GluCAM-OG (example 4), Ga-2,2-LiCAM-GluCAM (example 5), and the non-targeted dye OREGON GREEN dye. […]
The effect of metal ion on probe uptake can be seen in FIG. 29 in anincrease in fluorescence intensity after incubation of E. coli with Ga-3,3-LiCAM-GluCAM-OG, Fe-3,3-LiCAM-GluCAM, the apo probe, 3,3-LiCAM-GluCAM-OG, and the non-target OREGON GREEN dye. […]

Sequence of FepA (P05825 23-746): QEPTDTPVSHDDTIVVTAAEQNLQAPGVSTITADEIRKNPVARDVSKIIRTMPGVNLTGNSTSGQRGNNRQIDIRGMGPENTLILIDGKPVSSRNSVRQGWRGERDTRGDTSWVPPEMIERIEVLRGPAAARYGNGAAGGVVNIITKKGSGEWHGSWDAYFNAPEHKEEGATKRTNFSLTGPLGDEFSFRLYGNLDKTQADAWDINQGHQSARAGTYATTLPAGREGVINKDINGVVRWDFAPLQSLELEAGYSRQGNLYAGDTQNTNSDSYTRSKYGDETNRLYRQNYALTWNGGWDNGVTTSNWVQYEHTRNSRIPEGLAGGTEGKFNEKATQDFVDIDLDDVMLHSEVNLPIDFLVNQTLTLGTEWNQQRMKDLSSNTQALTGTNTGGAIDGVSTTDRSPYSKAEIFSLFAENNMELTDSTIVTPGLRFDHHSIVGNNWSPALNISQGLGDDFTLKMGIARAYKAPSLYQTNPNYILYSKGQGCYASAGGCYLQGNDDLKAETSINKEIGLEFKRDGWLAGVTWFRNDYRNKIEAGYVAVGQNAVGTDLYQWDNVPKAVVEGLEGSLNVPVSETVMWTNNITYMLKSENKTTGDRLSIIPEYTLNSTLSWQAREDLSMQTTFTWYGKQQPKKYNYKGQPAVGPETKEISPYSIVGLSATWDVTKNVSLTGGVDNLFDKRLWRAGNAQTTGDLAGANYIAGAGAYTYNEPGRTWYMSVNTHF

As to `O=C(NCCN(CCNC(=O)c1cccc(O)c1O)CCNC(=O)c1cccc(O)c1O)c1cccc(O)c1O` [TREN-CAM], the “uptake by E. coli” value in the assay on E. coli [1] was “actively taken up by E. coli”. At FepA, the “recognition by FepA” value was “recognized by FepA”.
Consider OREGON GREEN, for which the accumulation in bacteria result with E. coli [2] is “does not accumulate in bacteria”.
